From US20260063641A1, “COMPOSITIONS AND METHODS FOR LABELING AND DETECTING BINDING PARTNERS” (UNIVERSITY OF UTAH RESEARCH FOUNDATION, priority 2022, published 2026)
“Also recorded” adds a separate entry of the source.

Experiments:
Assay type in all cases: cell-based
NLuc-FKBP12F36V = molecular target: T1, NLuc-FKBP12F36V (Homo sapiens, UniProt P62942, F37V); experiment: FKBP12F36V cellular target engagement assay (competition with dTAG-13, NLuc/FLuc signal); conditions: mean±S.D. of n=3 technical replicates, FIG. 4D-F
T1 construct: expressed in transfected cells
T1 sequence (P62942 2-108 F37V limits assumed): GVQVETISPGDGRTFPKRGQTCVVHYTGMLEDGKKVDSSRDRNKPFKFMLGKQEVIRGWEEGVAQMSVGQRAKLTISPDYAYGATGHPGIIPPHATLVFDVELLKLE
Source text: This method, named the biotin targeting chimera (BioTAC) system, uses bifunctional molecules composed of a compound-of-interest linked to selective FKBP12F36V recruiter orthoAP1867, to recruit a ligandable proximity labeling enzyme (mTurbo-FKBP12F36V) to compound-bound complexes enabling their biotinylation and subsequent affinity purification (FIG. TA-B). To benchmark the BioTAC system for accurate detection of the direct targets of ligands the well-characterized BET protein inhibitor (+)-JQ1, which potently binds BRD2, BRD3 and BRD4 (as well as the testes-specific BET protein BRDT), was selected as a test case. A series of bifunctional molecules consisting of (+)-JQ1 conjugated to […] were synthesized via a variable linker (FIG. 1B, FIG. 4A-C). (+)-JQ1-bifunctional molecule cell permeability was measured using an FKBP12F36V cellular target engagement assay adapted from Nabet et. al Nat Commun 11, 4687 (2020). Briefly, FKBP12F36V binding molecules compete with an FKBP12F36V targeting PROTAC (dTAG-13), for NLuc-FKBP12F36V occupancy, rescuing degradation and resulting in an increase in NLuc/FLuc (control) signal relative to DMSO-treated cells. All synthesized compounds were comparably cell permeable (FIG. 4D-E).

[1] = molecular target: BRD2, BRD3 and BRD4 (BET proteins) and interactors (Homo sapiens, UniProt P25440); experiment: BioTAC proximity labeling with label-free mass spectrometry-based proteomics of streptavidin-enriched biotinylated proteins; conditions: 1 μM, 4 hr timepoint
Chain of BRD2, BRD3 and BRD4 (BET proteins) and interactors (Homo sapiens, UniProt P25440) (P25440 whole entry): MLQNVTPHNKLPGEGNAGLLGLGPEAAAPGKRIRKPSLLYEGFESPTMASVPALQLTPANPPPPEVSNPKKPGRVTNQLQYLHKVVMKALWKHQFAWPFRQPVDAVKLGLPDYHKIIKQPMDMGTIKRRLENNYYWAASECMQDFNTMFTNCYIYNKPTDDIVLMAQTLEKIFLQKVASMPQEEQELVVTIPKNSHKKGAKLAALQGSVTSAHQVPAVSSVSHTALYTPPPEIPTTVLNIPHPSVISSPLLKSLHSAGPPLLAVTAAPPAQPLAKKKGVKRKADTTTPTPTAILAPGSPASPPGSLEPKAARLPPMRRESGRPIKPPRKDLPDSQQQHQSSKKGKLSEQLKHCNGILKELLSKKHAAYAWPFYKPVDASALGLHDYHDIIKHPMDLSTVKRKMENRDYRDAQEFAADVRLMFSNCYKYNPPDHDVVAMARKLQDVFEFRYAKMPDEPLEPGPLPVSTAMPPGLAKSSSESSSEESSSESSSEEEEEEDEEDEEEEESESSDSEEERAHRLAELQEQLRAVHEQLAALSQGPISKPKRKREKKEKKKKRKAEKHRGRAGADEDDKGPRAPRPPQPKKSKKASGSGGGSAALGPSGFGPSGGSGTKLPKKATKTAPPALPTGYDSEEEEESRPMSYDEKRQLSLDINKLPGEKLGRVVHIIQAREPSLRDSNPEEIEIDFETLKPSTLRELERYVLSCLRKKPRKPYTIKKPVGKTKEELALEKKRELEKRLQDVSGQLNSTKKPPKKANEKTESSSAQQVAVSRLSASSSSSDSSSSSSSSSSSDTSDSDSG
Chain of BRD2, BRD3 and BRD4 (BET proteins) and interactors (Homo sapiens, UniProt P25440) (as listed by the source partner): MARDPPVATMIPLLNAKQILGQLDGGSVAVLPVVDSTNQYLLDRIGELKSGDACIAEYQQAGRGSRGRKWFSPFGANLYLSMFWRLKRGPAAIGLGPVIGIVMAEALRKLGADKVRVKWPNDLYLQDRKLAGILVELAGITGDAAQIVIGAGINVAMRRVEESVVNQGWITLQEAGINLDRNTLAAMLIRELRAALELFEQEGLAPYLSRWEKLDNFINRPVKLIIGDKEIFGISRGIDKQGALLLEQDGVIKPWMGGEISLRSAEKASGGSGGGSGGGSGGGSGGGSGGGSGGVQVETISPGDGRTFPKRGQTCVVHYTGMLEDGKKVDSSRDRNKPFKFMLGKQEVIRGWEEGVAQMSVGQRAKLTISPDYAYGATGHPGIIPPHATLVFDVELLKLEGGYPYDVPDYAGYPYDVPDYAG
Procedure: (§1) Having determined that the BioTAC system could identify BRD4 as a (+)-JQ1 target in focused screens, it was evaluated as an unbiased target-ID method. To identify direct binders of (+)-JQ1 proteome-wide, BioTAC proximity labelling experiments were performed as described above, followed by label-free mass spectrometry-based proteomic analysis of biotinylated proteins enriched following a 30 minute treatment with 100 μM biotin plus DMSO or 1 μM Cpd1, and then 1 μM Cpd1 off-competed by pre-treatment with 10 μM free (+)-JQ1.
(§2) Having established conditions for determining the primary targets of small molecules using the BioTAC system, its utility in reading out the interactome sphere of (+)-JQ1 bound BET-proteins was next investigated. An advantage of the BioTAC system is the relatively long half-life of the activated biotin-AMP intermediate generated by TurboID, allowing the labelling radius to be increased up to 35 nm by extending the labelling time. To quantitively evaluate the ability of the BioTAC system to successfully enrich the known interactome of (+)-JQ1 bound BET proteins, time course BioTAC proximity labelling experiments were performed at the 1 h and 4 h time points, and evaluated streptavidin-enriched biotinylated proteins using mass spectrometry-based proteomic analysis (FIG. 2A-C, FIG. 6). Longer time points correlated with a greater number of proteins meeting the significance cut-offs (defined as FC>2, P<0.05) for both enrichment in Cpd1 vs. DMSO, and competition with free (+)-JQ1 in Cpd1 vs. Cpd1+10 μM (+)-JQ1, (FIG. 2A, FIG. 6). […] Additionally, identified hit proteins at 1-4 hrs also included many known BET interactors, such as proteins found in components of the Pol II productive elongation complex subunit P-TEFb, the TFILD complex, and the Nucleosome Remodeling Deacetylase (NuRD) complex, as well as known BRD4 direct-binder Histone H4. […] To test this hypothesis the hits were compared to an extensive BET protein interactome reference dataset identified using AP/MS and proximity labelling coupled to mass spectrometry with and without (+)-JQ1. The BioTAC system afforded significant enrichment and off-competition (P<0.0001, one-way ANOVA) of identified reference interactors at the 4 h time point (FIG. 2B). Next it was asked whether the inverse could be performed, enriching complex members identified by Lambert et al. Mol Cell 73, 621-638 e617 (2019) directly from the data without any a priori knowledge of known interactors. It was discovered that 60% of the statistically significant enriched and (+)-JQ1 rescued hits were also present in the Lambert dataset. This observation falls greater than 7 standard deviations above a random bootstrap analysis of the data without filtering for significant enrichment and (+)-JQ1 rescue (FIG. 2C).
(§3) 9 million HEK293 cells were plated into 15 cm dishes containing 12 mL of complete media (DMEM, 10% FBS, 1% pen/strep) and incubated overnight. Cells were transiently transfected with 1 mL of OptiMEM media containing 10 μg of BioTAC plasmid and 30 μL of TransIT-2020 transfection reagent for 24 hr. Following a media change, cells were optionally pre-treated with parental molecules for 10 min, then treated with bifunctional compound for 10 min, and finally labeled in 100 μM biotin for 30 min, 1 hr, or 4 hrs. Cells were washed 5 times with DPBS then harvested by scraping on ice into 1.5 mL tubes. […] Lysates were clarified by centrifuging at 16,000×g for 10 min and protein concentration determined by BCA assay. […]

[2] = tested on: BRD2, BRD3 and BRD4 (BET proteins) and interactors; experiment: as above
Procedure: as §1, §2, §3

competitive displacement of dTAG-13 (FKBP12F36V cellular target engagement) (NLuc-FKBP12F36V): competitive displacement of dTAG-13
detection of BRD2 (proteomics) [1]: detected
Structure (SMILES): CC[C@H](C(=O)N1CCCC[C@H]1C(=O)O[C@H](CCc1ccc(OC)c(OC)c1)c1ccccc1OCC(=O)NCCOCCOCCOCCNC(=O)C[C@@H]1N=C(c2ccc(Cl)cc2)c2c(sc(C)c2C)-n2c(C)nnc21)c1cc(OC)c(OC)c(OC)c1 [Cpd1, (R)-1-(2-((17-((S)-4-(4-Chlorophenyl)-2,3,9-trimethyl-6H-thieno[3,2-f][1,2,4]triazolo[4,3-a][1,4]diazepin-6-yl)-2,16-dioxo-6,9,12-trioxa-3,15-diazaheptadecyl)oxy)phenyl)-3-(3,4-dimethoxyphenyl)propyl (S)-1-((S)-2-(3,4,5-trimethoxyphenyl)butanoyl)piperidine-2-carboxylate]
identification of BET-containing complexes (proteomics heatmap) ([2]; 1 μM with DMSO, 10 μM or 100 μM (+)-JQ1, FC>3, P<0.05): identifies known BET-containing complexes
enrichment and off-competition of BRD3 and BRD4 (time course proteomics) ([2]; 1 μM, 30 min, 1 h and 4 h, vs DMSO and +10 μM (+)-JQ1, FC>2, P<0.05): significantly enriched and off-competed at all time points
fold-change of reference BRD2, BRD3 and BRD4 interactors (Lambert et al.), rescue by (+)-JQ1 ([2]; 4 hr time point, P<0.0001, 1-way ANOVA): statistically significant rescue
enrichment of BRD3 and BRD4 among biotinylated proteins (proteomics) ([2]; HEK293, 1 μM, 100 μM biotin, 30 min, vs DMSO and 10 μM (+)-JQ1 off-compete): Highly selective enrichment of known (+)-JQ1 targets BRD3 and BRD4; also recorded: significant enrichment of BRD3 and BRD4
